Data taken from US11883452B2, “Use of combination or composition of Radix et Rhizoma Notoginseng and aspirin” (CHINESE ACADEMY OF MEDICAL SCIENCES INSTITUTE OF MEDICINAL …, priority 2017, dated 2024).

Assays:
Type in all cases: in vivo, SD rats
[1] = tested on: rat duodenal microvilli; assay: Ultrastructure of duodenal villi with transmission electron microscope; settings: aspirin 10 mg/kg intragastrically daily for 4 weeks; rats
Experimental: (§1) 40 male SD rats were randomly divided into 4 groups, with 10 rats in each group, including a control group, a group treated with aspirin at a dosage of 10 mg/kg, a group treated with the total saponins from Radix et Rhizoma Notoginseng at a dosage of 100 mg/kg and aspirin at a dosage of 10 mg/kg, and a group treated with the total saponins from Radix et Rhizoma Notoginseng at a dosage of 100 mg/kg. The rats in the groups treated with the total saponins from Radix et Rhizoma Notoginseng and aspirin were administrated intragastrically with the total saponins from Radix et Rhizoma Notoginseng and aspirin daily for 4 weeks, and the rats in the control group were administrated intragastrically with an equivalent volume of normal saline daily.
After 4 weeks of administration, the duodenum was collected from rats in each group of rats and fixed in 2.5% glutaraldehyde buffer for 2 h, then washed with PH 7.4 buffer three times, and then soaked with 1% osmium tetroxide for 30 min, dehydrated with graded alcohol and acetone, and then embedded in epoxy resin 812. Ultra-thin slices were prepared, copper grids of 200 grid units were taken, the ultra-thin slices were again impregnated with uranyl acetate and lead citrate, and then analyzed under the electron microscope to observe changes in the ultrastructure of the duodenum in rats of each group.

[2] = tested on: middle cerebral artery occlusion (MCAO/R) model rats; assay: Neurological evaluation (Longa's five-grade score) in MCAO/R rats
[3] = tested on: middle cerebral artery occlusion (MCAO/R) model rats; assay: Serum inflammatory factors by ELISA in MCAO/R rats
[4] = tested on: myocardial ischemia reperfusion injury model rats; assay: Myocardial infarction volume by TTC staining in myocardial ischemia-reperfusion injury rats; settings: x ± s
Experimental: 240 male SD rats were randomly divided into 8 groups, with 30 rats in each group, including a sham operated group, a myocardial ischemia reperfusion injury model group, a group treated with the total saponins from Radix et Rhizoma Notoginseng at a dosage of 50 mg/kg, a group treated with aspirin at a dosage of 10 mg/kg, a group treated with aspirin at a dosage 5 mg/kg, a group treated with the combination of the total saponins from Radix et Rhizoma Notoginseng at a dosage of 50 mg/kg and aspirin at a dosage of 5 mg/kg. […]
The rats were anesthetized by intraperitoneal injection of pentobarbital sodium at a dose of 40 mg/kg body weight, and were connected to a small animal ventilator through an oral cannula, with a respiratory rate of 70 breaths/min, a respiratory ratio of 1:1, and a tidal volume of 1 mL. Real time electrocardiograms of the rats were recorded on a multi-lead physiological recorder available from AD Instruments. […]
Myocardial infarction volumes were evaluated by triphenyl tetrazolium chloride (TTC) staining. […] Myocardial infarction volumes were evaluated and calculated using Image-Pro plus 5.1 software

[5] = tested on: rat gastric mucosa; assay: HE staining to detect pathological changes of gastric mucosa; settings: aspirin 10 mg/kg intragastrically daily for 4 weeks; rats
Experimental: as §1
After 4 weeks of administration, gastric tissues were taken from rats in each group and fixed with 4% formaldehyde solution, routinely embedded in paraffin and cut into slices, and stained with HE to observe the degree of inflammatory lesions in the tissues.

[6] = tested on: middle cerebral artery occlusion (MCAO/R) model rats; assay: Cerebral infarction volume by TTC staining in MCAO/R rats; settings: 24 hours of reperfusion
Experimental: (§2) 240 male SD rats were randomly divided into 8 groups, with 30 rats in each group, including a sham operated group, a middle cerebral artery occlusion (MCAO/R) model group, a group treated with the total saponins from Radix et Rhizoma Notoginseng at a dosage of 50 mg/kg, a group treated with aspirin at a dosage of 10 mg/kg, a group treated with aspirin at a dosage of 5 mg/kg, a group treated with the combination of the total saponins from Radix et Rhizoma Notoginseng at a dosage of 50 mg/kg and aspirin at a dosage of 5 mg/kg. The rats in the groups treated with the total saponins from Radix et Rhizoma Notoginseng and/or aspirin were administrated intragastrically with the total saponins from Radix et Rhizoma Notoginseng and/or aspirin for a week before MCAO, and the rats in the sham operated group and model group were administrated intragastrically with an equivalent volume of distilled water.
Middle cerebral artery occlusion (MCAO) model was established by thread embolization method. The surgical procedure was carried out under strictly aseptic conditions mainly according to the following steps: The rats were anesthetized by intraperitoneal injection of ketamine (80 mg/kg) and xylazine (10 mg/kg). […]
Cerebral infarction volumes were determined by triphenyl tetrazolium chloride (TTC) staining. […] Cerebral infarction volumes were evaluated and calculated using Image-Pro plus 5.1 software.

[7] = tested on: myocardial ischemia reperfusion injury model rats; assay: Three myocardial enzymes (AST, LDH, CK) in myocardial ischemia-reperfusion injury rats
Experimental: Rats in the groups treated with the total saponins from Radix et Rhizoma Notoginseng and/or aspirin were administrated intragastrically with the total saponins from Radix et Rhizoma Notoginseng and/or aspirin for a week, and rats in the sham operated group and model group were administrated intragastrically with an equivalent volume of distilled water. […] Real time electrocardiograms of the rats were recorded on a multi-lead physiological recorder available from AD Instruments. Thoracotomy was performed on the rats. An incision of 2 to 3 cm was made at a place between the 3rd and 4th ribs and about 0.5 cm from the left side of the sternum, a chest expander was used to open the ribs, and the pericardium was cut when exhaling to expose the heart. Myocardial ischemia was established by ligating the left coronary artery. […] After being stabilized for 5 minutes, the silk thread was passed through a disposable intravenous infusion hose with a length of about 3.5 cm. After the silk thread was pulled out, the silk thread was gently lifted, and the hose was pushed down and was fixed with a hemostatic forceps. […] The ligation was considered successful if: the ST segment was elevated, and the color of local myocardial tissue changed from red to gray; and after 30 minutes of reperfusion, the ST segment fell by more than 50%, and the color of myocardial tissue changed from gray to red. After the reperfusion was completed, blood was taken from the abdominal aorta and analyzed on an automatic biochemical analyzer to detect the levels of three myocardial enzymes (AST, LDH, CK) in plasma.

[8] = tested on: platelets in platelet-rich plasma; assay: Maximum platelet aggregation rate (ADP-induced, platelet-rich plasma) in MCAO/R rats; settings: ADP 2 μmol/L
Experimental: as §2, with “water. […]” for “water.”
3.6 mL of blood was taken from the rats (n=10), anticoagulated with 3.8% sodium citrate (9:1), centrifuged at 150 g for 10 min to separate a platelet-rich plasma, and then centrifuged at 1500 g for 10 min to obtain a supernatant, which was platelet-poor plasma. […] Maximum aggregation within 5 minutes and maximum aggregation time of platelets in platelet-rich plasma were detected with a blood agglutination instrument.

[9] = tested on: middle cerebral artery occlusion (MCAO/R) model rats; assay: Canine urea levels in serum, hippocampus and cerebral cortex by ELISA in MCAO/R rats
Experimental: Middle cerebral artery occlusion (MCAO) model was established by thread embolization method. The surgical procedure was carried out under strictly aseptic conditions mainly according to the following steps: The rats were anesthetized by intraperitoneal injection of ketamine (80 mg/kg) and xylazine (10 mg/kg). The common carotid artery (CCA), external carotid artery (ECA) and internal carotid artery (ICA) were fully exposed, the common carotid artery was clamped with a vascular clip, and the branches of the external carotid artery were electrocoagulated with a bipolar electrocoagulation forceps. The main trunk of the external carotid artery was freed and ligated at 3 to 4 mm from the bifurcation of the common carotid artery. The internal carotid artery was temporarily clamped with a vascular clip. Corneal scissors were used to make a small incision in the external carotid artery. A 4-0 monofilament nylon thread coated with methylpolysiloxane was inserted and was tied a loose knot at the small incision of the external carotid artery to block the blood reflux of the internal carotid artery. The clip was removed from the internal carotid artery, and the nylon thread was gently pushed into the internal carotid artery to reach the intracranial anterior cerebral artery to block an incision of the middle cerebral artery (MCA), with an insertion depth of about 18-22 mm. The clip was removed from the common carotid artery, and the subcutaneous tissue and skin were sutured layer by layer after disinfection, and 2 hours later the nylon thread was slowly withdrawn to perform reperfusion for 24 hours. The operation to the sham operated group is the same as the above except that nylon thread is not inserted. The rectum of all rats was maintained at a temperature of 37° C. throughout the experiment.
5 mL of blood was taken from the abdominal aorta of the rats (n=8), and centrifuged at 3000 rpm for 10 min to obtain a serum. Hippocampus and cerebral cortex were separated from the brain tissue, homogenized, and centrifuged at 3000 rpm for 10 min to obtain a supernatant. Serum MDA, SOD, CAT and GSH-Px levels were detected with kits available from Nanjing Jiancheng; levels of canine urea and inflammatory response indicators MCP-1, TNF-α, IL-1β, IL-4, IL-6 and IL-10 were detected with ELISA kits.

[10] = aspirin 5 mg/kg intragastrically for a week before MCAO
[11] = aspirin 10 mg/kg intragastrically for a week before MCAO
[12] = aspirin 5 mg/kg intragastrically for a week
[13] = aspirin 10 mg/kg intragastrically for a week

CC(=O)Oc1ccccc1C(=O)O [aspirin]
microvilli on the duodenal surface (electron microscope) compared with the control group [1]: the microvilli on the duodenal surface decreased
Score (neurological deficit, Longa) [2, 10]: 1.83
Score (neurological deficit, Longa) [2, 11]: 1.08
IL-1β ([3]; aspirin 5 mg/kg): 168.58 pg/mL
IL-4 ([3]; aspirin 5 mg/kg): 36.57 pg/mL
IL-6 ([3]; aspirin 5 mg/kg): 47.12 pg/mL
IL-1β ([3]; aspirin 10 mg/kg): 189.69 pg/mL
IL-4 ([3]; aspirin 10 mg/kg): 35.45 pg/mL
IL-6 ([3]; aspirin 10 mg/kg): 47.15 pg/mL
Myocardial infarction volume (%) [4, 12]: 9.88%
Myocardial infarction volume (%) [4, 13]: 8.75%
gastric mucosa pathology (HE staining) compared with the control group [5]: gastric mucosal epithelial cells were necrotic and inflammatory cells infiltrated
Volume of cerebral infarction [6, 10]: 16.08
Volume of cerebral infarction [6, 11]: 13.96
AST(U/L) [7, 12]: 312.48 U/L
CK(U/L) [7, 12]: 1823.49 U/L
LDH(U/L) [7, 12]: 1105.54 U/L
AST(U/L) [7, 13]: 204.32 U/L
CK(U/L) [7, 13]: 1222.54 U/L
LDH(U/L) [7, 13]: 811.85 U/L
Maximum platelet aggregation rate (%) [8, 12]: 56.80%
Maximum platelet aggregation rate (%) [8, 13]: 62.63%
Canine urea levels in cerebral cortex tissue ([9]; aspirin 5 mg/kg): 8.95 µg/L
Canine urea levels in hippocampus ([9]; aspirin 5 mg/kg): 2.11 µg/L
Canine urea levels in serum ([9]; aspirin 5 mg/kg): 18.00 µg/L
Canine urea levels in cerebral cortex tissue ([9]; aspirin 10 mg/kg): 8.12 µg/L
Canine urea levels in hippocampus ([9]; aspirin 10 mg/kg): 2.01 µg/L
Canine urea levels in serum ([9]; aspirin 10 mg/kg): 17.25 µg/L
